# Patent US8911995B2, “Culture system and method for immunogenicity and immunofunction testing in vitro” (ProBioGen AG, priority 2007, dated 2014)
# System: human PBMC
# Assay: Cytokine profile of matrix-embedded, perfused PBMC cultures in device 1 (multiplex bead array)
# Type: cell-based
# Description: Cryopreserved human PBMC, isolated from whole blood by ficoll density gradient centrifugation, were revitalised using standard protocols. The cell concentration was adjusted to 3 E8 viable cells per mL in X-Vivo 15 cell culture media (Lonza, Basel, Switzerland) supplemented with 5 mg/mL agarose type VII (made from 50 mg/mL 37° C. liquid solution, Sigma-Aldrich, St. Louis, Mo.), 2.5 μg/mL fibronectin (human, Sigma-Aldrich, St. Louis, Mo.) and 1× penicillin/streptomycin solution (100×, Invitrogen, Carlsbad, Calif.).
# The device was made of a 1 mm PC plate housing the culture compartment, feeding and draining canals (see FIGS. 1 and 1A). The plate was covered with a 1 mm PC plate on top were the luer connectors were attached and a gas permeable membrane (Biofoil25, Greiner bio-one, Kremsmünster, Germany) at the bottom of the plate for optimal gas supply of the culture. The culture compartment of this special embodiment of device 1 has a volume of 160 μL. The device was incubated in a humidified incubator (37° C./5% carbon dioxide).
# Three culture compartments of the device, further illustrated in FIG. 1A, were filled with cell suspension in liquid agarose media avoiding air bubbles (4,8 E7 viable PBMC/compartment). The whole culture device was cooled down to 4° C. for 5 min in order to let the matrix gel. Subsequently the surrounding fluidic system was prefilled with X-Vivo 15 cell culture media and was applied to the luer connectors of the culture device. A flow rate of 13.1 μL/h was set up using a peristaltic media pump.
# Samples were taken every day and immediately frozen down to −20° C. for subsequent cytokine analyses using multiplex bead array technology (Luminex, Austin, Tex.).
# After the second sample was taken 24 hours after innoculation, 100 μL OKT-3 antibody (100 ng/mL solution in X-Vivo 15, Ortho Biotech, Bridgewater, N.J.) were administered via an injection site in the fluidic system. 5 days after inoculation the last sample was taken and viability of the cultures was checked with acridine orange (1 μg/mL, Sigma, St. Louis, […].) and ethidium bromide (4 μg/mL, Sigma, St. Louis, […].).
# The experiment was conducted as described in example 1. PBMCs were derived from a differed donor and cells were subsequently cultured in RPMI 1640 (Invitrogen, Carlsbad, Calif.) supplemented with 10% FCS (Biochrom, Berlin, Germany) and 1× penicillin/streptomycin solution (100×, Invitrogen, Carlsbad, Calif.). As described previously, the culture compartment of culture device 1 (see FIGS. 1 and 1A) was filled with liquid agarose-media (RPMI 1640 10% FCS cell culture media supplemented with 5 mg/mL agarose type VII (from 50 mg/mL 37° C. liquid solution, Sigma-Aldrich, St. Louis, Mo.), 2.5 μg/mL fibronectin (human, Sigma-Aldrich, St. Louis, Mo.) and 1× penicillin/streptomycin solution (100×, Invitrogen, Carlsbad, Calif.) and cells (4,8 E7 PBMC/compartment). After pre-incubation for 24 hours with a constant perfusion rate of 13.1 μL culture media, 100 μL of a 100 ng/mL OKT-3 solution was administered. Samples were taken every 24 hours and frozen down to −20° C. before the cytokine levels were determined.
# [1] = Example 1, X-Vivo 15 medium, 100 μL of 100 ng/mL OKT-3
# [2] = Example 2, different donor, RPMI 1640 10% FCS, 100 μL of 100 ng/mL OKT-3
substance,measurement,setting,value
Muromonab-CD3 [OKT-3],IFN-gamma release,[1],released
same,IL-5 level,[1],raises initially
same,TNF-alpha release,[1],released
same,IL-2 release,"Example 1, X-Vivo 15 medium, 24 hours after administration of 100 μL of 100 ng/mL OKT-3",massive IL-2 burst
same,IL-2 level after the initial burst,"Example 1, X-Vivo 15 medium, after 72 hours",declined
same,IFN-gamma level,[2],only raise slightly
same,IL-2 release,[2],massive IL-2 release
same,IL-5 level,[2],raises initially
same,TNF-alpha level,[2],only raise slightly
